From patent publication US20240042424A1, “CITY POLLUTION ENVIRONMENT SIMULATION APPARATUS” (BASF SE, priority 2017, published 2024)

Legend:
Assay type in all cases: physicochemical
[1] = Sebum oxidation products by GC/MS after exposure in pollution test chamber (dry film method); conditions: for change of sebum component in GC/MS chromatogram: upon UVA exposure
Method: (§1) A) Stock solutions and preparation: • Stock solution squalene: 1 g of squalene was dissolved in 100 ml ethanol solvent • Stock solution sebum: 1 g of synthetic sebum (e.g. Synthetic Sebum 09D, available from WFK Testgewebe GmbH) was dissolved in 100 ml ethanol solvent using a water bath 15 minutes under 40° C. heat 1 ml of the respective stock solution was added at the center of large petri dishes (100 mm diameter×17 mm height) using an automatic pipette. After evaporating the ethanol solvent in a high ventilated fume hood for 10 mins, the petri dishes were coated with one uniform layer of squalene, respectively sebum, evenly distributed at the bottom of the petri dish. In total 16 samples were prepared, 8 of each respective batch, meaning 8 with squalene coating (batch 1) and 8 with sebum coating (batch 2). The side walls of the test petri dish samples were wrapped with plastic band seals in order to get them vertically hooked in a position facing the UVA lamps located on sides in the pollution test chamber. Four coated petri dishes, two with squalene and two with sebum, were stored in a fridge at 4° C. for control purposes, due to the autoxidation of squalene.
(§2) For each batch, 2 samples (in total 4 samples per mode) were respectively exposed to the 3 different pollution modes (i to iii): • i. During the “UVA only” (“uv”) mode, the samples were exposed to continuous 340 nm UV irradiation of the 8 UVA lamps for 6 hours. • ii. […]
(§3) 3.3.1 Squalene and Sebum oxidation products quantification with GC/MS • Equipment: Agilent 7890B/5977A GC-MS system • Dissolution solvent: Ethanol • column: DB-1MS • Flow Rate: 2 ml/min • Column Temperature: 40° C. […] Malondialdehyde (MDA) Quantification with Spectrophotometer (MDA-TBA Detection) • UV-vis scan between 200 and 800 nm, • Colorimetry: UV detection for MDA-TBA complex at 532 nm • Standard curve preparation: As precursor of MDA, 1,1,3,3-tetraethoxypropane (TEP) was used. […]

[2] = Squalene oxidation products by GC/MS after exposure in pollution test chamber (dry film method); conditions: solvent ethanol
Method: as §1, §2, §3

[3] = MDA quantification/TBA test for squalene samples after pollution exposure
Method: as §1, §2, §3

CC(C)CCC[C@@H](C)[C@H]1CC[C@H]2[C@@H]3CC=C4C[C@@H](O)CC[C@]4(C)[C@H]3CC[C@]12C [cholesterol]
change of sebum component in GC/MS chromatogram [1]: increase

CCCCCCCCCCCCCCCC(=O)O [palmitic acid]
change of sebum component in GC/MS chromatogram [1]: increase

CC(C)=CCC/C(C)=C/CC/C(C)=C/CC/C=C(\C)CC/C=C(\C)CCC=C(C)C [squalene]
squalene oxidization products (GC/MS) ([2]; UVA and exhaust gas (PUV-Mode), UVA 6 h, 3x30 mins diesel engine exhaust gas): a mix of pollution-induced squalene isomers (SQ isomers) as well as irradiation-induced oxidation products (SQOPs) | squalene oxidization products (GC/MS) ([2]; UVA irradiation only (UV-Mode), UVA for 6 h): highest content of oxidation products | squalene oxidization products (GC/MS) ([2]; exhaust gas only (p-Mode), 3x30 mins diesel engine exhaust gas): squalene isomers (SQ isomers) | decrease of squalene from sebum (GC/MS) ([1]; 2 h UVA exposure and one-time 30 min exhaust gas, solvent Ethanol): 93% | MDA percentage of initial mole of squalene ([3]; UVA irradiation only (uv mode)): 14.0% | MDA percentage of initial mole of squalene ([3]; combined exhaust gas and UV irradiation (puv mode)): 13.6% | MDA percentage of initial mole of squalene ([3]; exhaust gas only (p mode)): 13.5%
